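These data come from cells grown in 96-well plates and exposed to compound for 48 hours at five concentrations. GI50 = concentration required for 50% inhibition of growth.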 Active and inactive are the calls of the source. No stated cut-off is given here; in the data, active = GI50 up to about 1.1 µM and inactive = higher.
Tests used:
Experiment in all cases: growth of human tumour cells (NCI), 48 h
[1] = test system: UACC-62
[2] = test system: CAKI-1
[3] = test system: DU-145
[4] = test system: BT-549
[5] = test system: RXF 393
[6] = test system: ACHN
[7] = test system: CCRF-CEM
[8] = test system: A498
[9] = test system: SN12C
[10] = test system: PC-3
[11] = test system: 786-0
[12] = test system: NCI-H460
[13] = test system: SR
[14] = test system: U-251
[15] = test system: RPMI-8226
[16] = test system: HL-60
[17] = test system: A549
[18] = test system: HCT-116
[19] = test system: MCF7
[20] = test system: SW-620
[21] = test system: MDA-MB-231
[22] = test system: HOP-92
[23] = test system: OVCAR-8
[24] = test system: HT-29
[25] = test system: UO-31
[26] = test system: KM12
[27] = test system: SK-MEL-28
[28] = test system: MDA-N
[29] = test system: OVCAR-3
[30] = test system: OVCAR-5
[31] = test system: SNB-75
[32] = test system: T47D
[33] = test system: SF-539
[34] = test system: MDA-MB-435
[35] = test system: MOLT-4
[36] = test system: NCI-H522
[37] = test system: K562
[38] = test system: NCI-H226
[39] = test system: IGROV-1
[40] = test system: COLO 205
[41] = test system: UACC-257
[42] = test system: NCI-H23
[43] = test system: TK-10
[44] = test system: HOP-62
[45] = test system: OVCAR-4
[46] = test system: LOX IMVI
[47] = test system: NCI/ADR-RES
[48] = test system: SK-MEL-5
[49] = test system: SF-295
[50] = test system: M14
[51] = test system: Malme-3M
[52] = test system: Hs-578T
[53] = test system: SNB-19
[54] = test system: SF-268
[55] = test system: SK-MEL-2
[56] = test system: SK-OV-3
[57] = test system: HCT-15
[58] = test system: EKVX

CC(=O)OCC1OC(n2c3c(c(-c4ccc(C)cc4)c(C#N)c2=S)C(=O)CC(C)(C)C3)C(OC(C)=O)C(OC(C)=O)C1OC(C)=O (stereo unspecified)
GI50 [1]: 18.9 µM (inactive)
GI50 [2]: 52.5 µM (inactive)
GI50 [3]: 50.4 µM (inactive)
GI50 [4]: 19.3 µM (inactive)
GI50 [5]: 23.3 µM (inactive)
GI50 [6]: 39 µM (inactive)
GI50 [7]: 31.6 µM (inactive)
GI50 [8]: 32.1 µM (inactive)
GI50 [9]: 17.6 µM (inactive)
GI50 [10]: 18.3 µM (inactive)
GI50 [11]: 33.7 µM (inactive)
GI50 [12]: 42.2 µM (inactive)
GI50 [13]: 24.1 µM (inactive)
GI50 [14]: 30.3 µM (inactive)
GI50 [15]: 27.5 µM (inactive)
GI50 [16]: 23.5 µM (inactive)
GI50 [17]: 50.4 µM (inactive)
GI50 [18]: 34.8 µM (inactive)
GI50 [19]: 25.6 µM (inactive)
GI50 [20]: 46 µM (inactive)
GI50 [21]: 23.4 µM (inactive)
GI50 [22]: 45.5 µM (inactive)
GI50 [23]: 36.4 µM (inactive)
GI50 [24]: 27.3 µM (inactive)
GI50 [25]: 58.5 µM (inactive)
GI50 [26]: 36.4 µM (inactive)
GI50 [27]: 26.2 µM (inactive)
GI50 [28]: 15.7 µM (inactive)
GI50 [29]: 70 µM (inactive)
GI50 [30]: > 100 µM (inactive)
GI50 [31]: 23.9 µM (inactive)
GI50 [32]: > 10 µM (inactive)
GI50 [33]: 23.3 µM (inactive)
GI50 [34]: 27 µM (inactive)
GI50 [35]: 25.1 µM (inactive)
GI50 [36]: 30.8 µM (inactive)
GI50 [37]: 22.7 µM (inactive)
GI50 [38]: 23.3 µM (inactive)
GI50 [39]: 50.1 µM (inactive)
GI50 [40]: 37.3 µM (inactive)
GI50 [41]: 18.5 µM (inactive)
GI50 [42]: 42.8 µM (inactive)
GI50 [43]: > 100 µM (inactive)
GI50 [44]: 62.5 µM (inactive)
GI50 [45]: > 10 µM (inactive)
GI50 [46]: 13.3 µM (inactive)
GI50 [47]: 57.4 µM (inactive)
GI50 [48]: 26.9 µM (inactive)
GI50 [49]: 25.5 µM (inactive)
GI50 [50]: 35.5 µM (inactive)
GI50 [51]: > 100 µM (inactive)
GI50 [52]: 47.5 µM (inactive)
GI50 [53]: > 100 µM (inactive)
GI50 [54]: 28.6 µM (inactive)

Cc1ccc(S(=O)(=O)N/N=C2/CCC(C(C)(C)C)CC2Br)cc1 (stereo unspecified)
GI50 [55]: 13.7 µM (inactive)
GI50 [1]: > 10 µM (inactive)
GI50 [2]: 28.1 µM (inactive)
GI50 [3]: 42.6 µM (inactive)
GI50 [4]: 32.1 µM (inactive)
GI50 [6]: 34.1 µM (inactive)
GI50 [7]: 24.5 µM (inactive)
GI50 [8]: 48.6 µM (inactive)
GI50 [9]: 17.3 µM (inactive)
GI50 [10]: 25.6 µM (inactive)
GI50 [11]: 31.2 µM (inactive)
GI50 [12]: 34.1 µM (inactive)
GI50 [13]: 39 µM (inactive)
GI50 [14]: 8.24 µM (inactive)
GI50 [15]: 28.4 µM (inactive)
GI50 [16]: 41.9 µM (inactive)
GI50 [17]: 34 µM (inactive)
GI50 [18]: 23.1 µM (inactive)
GI50 [56]: 33.8 µM (inactive)
GI50 [19]: 22.7 µM (inactive)
GI50 [20]: 23.9 µM (inactive)
GI50 [21]: 37.9 µM (inactive)
GI50 [22]: 26.1 µM (inactive)
GI50 [23]: 26.4 µM (inactive)
GI50 [24]: 29.4 µM (inactive)
GI50 [57]: 34 µM
GI50 [25]: 17.2 µM (inactive)
GI50 [26]: 20.8 µM (inactive)
GI50 [27]: 19.6 µM (inactive)
GI50 [28]: 28.2 µM (inactive)
GI50 [29]: 16.2 µM (inactive)
GI50 [30]: 19.5 µM (inactive)
GI50 [31]: 27.4 µM (inactive)
GI50 [32]: 27.4 µM (inactive)
GI50 [33]: 21.2 µM (inactive)
GI50 [34]: 18.7 µM (inactive)
GI50 [35]: 20 µM (inactive)
GI50 [36]: 18.2 µM (inactive)
GI50 [37]: 19.8 µM (inactive)
GI50 [38]: 17.8 µM (inactive)
GI50 [39]: 38.6 µM (inactive)
GI50 [40]: 27.2 µM (inactive)
GI50 [41]: 23 µM (inactive)
GI50 [42]: 28 µM (inactive)
GI50 [43]: 31 µM (inactive)
GI50 [44]: 32.4 µM (inactive)
GI50 [45]: 19.5 µM (inactive)
GI50 [46]: 16.4 µM (inactive)
GI50 [47]: 17.6 µM (inactive)
GI50 [48]: 15.5 µM (inactive)
GI50 [49]: 34.5 µM (inactive)
GI50 [58]: 36.6 µM (inactive)
GI50 [50]: 17.9 µM (inactive)
GI50 [51]: 16.3 µM (inactive)
GI50 [52]: 17.2 µM (inactive)
GI50 [53]: 36.6 µM (inactive)
GI50 [54]: 36.6 µM (inactive)

Reference: ChEMBL document CHEMBL1201862, “PubChem BioAssay data set” (2004)
